In ChEMBL document CHEMBL4813957, “Antitubercular properties of thiazolidin-4-ones - A review” (Eur J Med Chem, 2021):
Values after ≈ are worked out from the molar mass of the structure shown.

Legend:
[1] = tested on: Mycobacterium tuberculosis; assay: Antimycobacterial activity against Mycobacterium tuberculosis H37Rv assessed as growth inhibition at 6.25 ug/ml by BACTEC radiometric method relative to control; type: functional; details: read-out: GI
[2] = tested on: Mycobacterium tuberculosis; assay: Antimycobacterial activity against Mycobacterium tuberculosis H37Ra ATCC 25177 by XTT Reduction Menadione assay; type: functional
[3] = tested on: Mycobacterium tuberculosis; assay: Antimycobacterial activity against Mycobacterium tuberculosis H37Rv measured after 11 to 12 days; type: functional; details: time 11-12 day
[4] = tested on: Mycobacterium tuberculosis; assay: Antimycobacterial activity against Mycobacterium tuberculosis HN878 measured up to 2 weeks; type: functional; details: HN878, 336 h, time weeks <=2
[5] = tested on: Mycobacterium tuberculosis; assay: Antimycobacterial activity against Mycobacterium tuberculosis Erdman measured up to 2 weeks; type: functional; details: 336 h, time weeks <=2
[6] = tested on: Mycobacterium tuberculosis; assay: Antimycobacterial activity against Mycobacterium tuberculosis measured up to 2 weeks; type: functional; details: 336 h, time weeks <=2
[7] = tested on: Mycobacterium tuberculosis; assay: Antimycobacterial activity against Mycobacterium tuberculosis H37Rv assessed as mycobacterial growth inhibition at 12.5 ug/ml relative to control; type: functional; details: read-out: GI
[8] = tested on: Mycobacterium tuberculosis; assay: Antimycobacterial activity against Mycobacterium tuberculosis H37Rv assessed as bacterial growth inhibition at 6.25 ug/ml by BACTEC MGIT method relative to control; type: functional
[9] = tested on: Mycobacterium tuberculosis; assay: Antimycobacterial activity against Mycobacterium tuberculosis H37Rv 27294 by microplate alamar blue assay; type: functional
[10] = Cytotoxicity against African green monkey Vero cells after 72 hrs by cell titer glo luminescent cell viability assay; type: cell-based; details: chlorocebus sabaeus
[11] = tested on: Mycobacterium tuberculosis; assay: Antimycobacterial activity against Mycobacterium tuberculosis H37Rv assessed as growth inhibition at 12.5 ug/ml by BACTEC radiometric method relative to control; type: functional; details: read-out: GI
[12] = tested on: Mycobacterium tuberculosis; assay: Antimycobacterial activity against Mycobacterium tuberculosis H37Rv assessed as growth inhibition at 16 ug/ml measured after 12 to 28 days by Lowenstein-Jensen agar method relative to control; type: functional; details: time 12-28 day, read-out: GI
[13] = Selectivity ratio of CC50 for African green monkey Vero E6 cells to IC90 for Mycobacterium tuberculosis H37Rv 27294; type: toxicity, Vero C1008
[14] = tested on: Mycobacterium tuberculosis; assay: Antimycobacterial activity against Mycobacterium tuberculosis H37Rv measured after 12 to 28 days by Lowenstein-Jensen method; type: functional; details: time 12-28 day
[15] = tested on: Mycobacterium tuberculosis; assay: Antimycobacterial activity against Mycobacterium tuberculosis H37Rv by Lowenstein-Jensen agar method; type: functional
[16] = tested on: Mycobacterium tuberculosis; assay: Antimycobacterial activity against Mycobacterium tuberculosis H37Rv by filter paper disc diffusion method; type: functional
[17] = tested on: Mycobacterium tuberculosis; assay: Antimycobacterial activity against Mycobacterium tuberculosis H37Rv ATCC 27294 incubated for 5 days by microplate alamar blue assay; type: functional; details: H37Rv ATCC 27294, 120 h, time 5 day
[18] = tested on: Mycobacterium tuberculosis; assay: Antimycobacterial activity against Mycobacterium tuberculosis H37Rv ATCC27294 measured after 28 days by two-fold serial dilution method; type: functional; details: H37Rv ATCC 27294, 672 h, time 28 day
[19] = tested on: Mycobacterium tuberculosis; assay: Antimycobacterial activity against Mycobacterium tuberculosis; type: functional
[20] = tested on: Mycobacterium tuberculosis; assay: Antimycobacterial activity against Mycobacterium tuberculosis H37Rv ATCC 27294 by BACTEC radiometric method; type: functional
[21] = tested on: Mycobacterium tuberculosis; assay: Antimycobacterial activity against Mycobacterium tuberculosis by microplate alamar blue assay; type: functional
[22] = tested on: Mycobacterium tuberculosis; assay: Antimycobacterial activity against Mycobacterium tuberculosis H37Rv assessed as growth inhibition at 50 ug/ml by Lowenstein-Jensen method relative to control; type: functional; details: read-out: GI
[23] = tested on: Mycobacterium tuberculosis; assay: Antimycobacterial activity against Mycobacterium tuberculosis H37Rv ATCC 27294; type: functional
[24] = Inhibition of Mycobacterium tuberculosis Pantothenate Synthetase expressed in Escherichia coli BL21(DE3) cells using beta-alanine as substrate
[25] = tested on: Mycobacterium tuberculosis; assay: Antimycobacterial activity against Mycobacterium tuberculosis H37Rv incubated for 7 days by microplate alamar blue assay; type: functional; details: 168 h, time 7 day
[26] = tested on: Mycobacterium tuberculosis; assay: Antimycobacterial activity against Mycobacterium tuberculosis H37Rv ATCC 25618 incubated for 5 days by colorimetric microdilution assay; type: functional; details: H37Rv ATCC 25618, 120 h, time 5 day
[27] = Selectivity ratio of IC50 for human WI-38 cells to MIC for Mycobacterium tuberculosis RCMB 010126; type: toxicity
WI-38 = assay: Cytotoxicity against human WI-38 cells by MTT assay; type: cell-based
[28] = tested on: Mycobacterium tuberculosis; assay: Antimycobacterial activity against Mycobacterium tuberculosis RCMB 010126 measured after 7 days by microplate alamar blue assay; type: functional; details: RCMB 010126, 168 h, time 7 day

Compound: COc1ccc(C(=O)Nc2ccc(C(=O)NN3C(=O)CSC3c3ccc([N+](=O)[O-])o3)cc2)cc1 (stereo unspecified)
- inhibition of growth at 6.25 µg/mL [1]: 98%

Compound: O=C1NC(=S)S/C1=C\c1ccc([N+](=O)[O-])cc1
- IC90 [2]: 22.3 µg/mL (≈ 83.7 µM)

Compound: O=C(O)CCCCCC1NC(=O)CS1 (stereo unspecified)
- MIC [3]: 1.56 µM (≈ 0.339 µg/mL)
- MIC [4]: 0.6 µM (≈ 0.13 µg/mL)
- MIC [5]: 1.56 µM (≈ 0.339 µg/mL)
- MIC [6]: 0.096 µM (≈ 0.0209 µg/mL)

Compound: CC1SC(c2ccc(O)cc2)N(Nc2nc(-c3ccccc3)c(C#N)c(=O)n2C)C1=O (stereo unspecified)
- inhibition of growth at 12.5 µg/mL [7]: 44%

Compound: Cc1nc2ccccc2c(=O)n1CCNC1=NC(=O)/C(=C/c2cccc(Cl)c2)S1
- inhibition at 6.25 µg/mL [8]: 99%

Compound: CN1C(=O)/C(=C/c2ccccc2F)S/C1=N/NC(=O)c1ccncc1
- IC90 [9]: 2.95 µg/mL (≈ 8.28 µM)
- CC50 at 72 h [10]: 15.5 µg/mL (≈ 43.6 µM)

Compound: COc1ccc(C(=O)Nc2ccc(C(=O)NN3C(=O)CSC3c3ccccc3)cc2)cc1 (stereo unspecified)
- inhibition of growth at 6.25 µg/mL [1]: 90%

Compound: Cc1ccc(N2C(=O)CSC23C(=O)N(CN2CCOCC2)c2ccc(C)cc23)cc1 (stereo unspecified)
- inhibition of growth at 12.5 µg/mL [11]: 90%

Compound: COc1ccc(C(CNC(=O)CNN2C(=O)CSC2c2ccc(O)c(OC)c2)C2(O)CCCCC2)cc1 (stereo unspecified)
- inhibition of growth at 16 µg/mL [12]: 99%

Compound: CCN1C(=O)/C(=C/c2ccc(OC)cc2)S/C1=N/NC(=O)c1ccncc1
- selectivity ratio [13]: 18.1
- IC90 [9]: 2.95 µg/mL (≈ 7.72 µM)
- CC50 at 72 h [10]: 36.9 µg/mL (≈ 96.4 µM)

Compound: CO[C@H]1/C=C/O[C@@]2(C)Oc3c(C)c(O)c4c(O)c(c(/C=N/N5CCN(C)CC5)c(O)c4c3C2=O)NC(=O)/C(C)=C\C=C\[C@H](C)[C@H](O)[C@@H](C)[C@@H](O)[C@@H](C)[C@H](OC(C)=O)[C@@H]1C [RIFAMPIN]
- MIC [14]: 40 µg/mL (≈ 48.6 µM)
- MIC [15]: 40 µg/mL (≈ 48.6 µM)
- MIC [16]: 2.5 µg/mL (≈ 3.04 µM)
- MIC [17]: 1 µg/mL (≈ 1.22 µM)
- MIC [18]: 0.24 µM (≈ 0.198 µg/mL)

Compound: Cc1nc(/N=C2\C(=O)Nc3ccccc32)sc1C(=O)NN1C(=O)CSC1c1ccc(F)cc1 (stereo unspecified)
- MIC [19]: 0.78 µM (≈ 0.376 µg/mL)

Compound: CCN1C(=O)/C(=C/c2ccc(F)cc2)S/C1=N/NC(=O)c1ccncc1
- IC90 [9]: 2.95 µg/mL (≈ 7.97 µM)
- CC50 at 72 h [10]: 9.69 µg/mL (≈ 26.2 µM)

Compound: N#Cc1ccc(C2SCC(=O)N2NC(=O)c2[nH]c3ccc(F)cc3c2-c2ccccc2)cc1 (stereo unspecified)
- MIC [20]: 6.25 µg/mL (≈ 13.7 µM)

Compound: O=C(NN1C(=O)CSC1c1cccc([N+](=O)[O-])c1)c1coc2ccc3ccccc3c12 (stereo unspecified)
- MIC [21]: 50 µg/mL (≈ 115 µM)

Compound: O=C(NCCCN1c2ccccc2Sc2ccccc21)N1C(=O)/C(=C/c2ccc([N+](=O)[O-])cc2)SC1c1ccc([N+](=O)[O-])cc1 (stereo unspecified)
- inhibition of growth at 50 µg/mL [22]: 82%

Compound: CCN1C(=O)/C(=C/c2ccccc2F)S/C1=N/NC(=O)c1ccncc1
- IC90 [9]: 2.95 µg/mL (≈ 7.97 µM)
- CC50 at 72 h [10]: 22.8 µg/mL (≈ 61.4 µM)

Compound: CCn1c(C(=O)NN2C(=O)CSC2c2ccc([N+](=O)[O-])cc2)cc(=O)c2cc(F)c(N3CCNCC3)cc21 (stereo unspecified)
- MIC [23]: 16.3 µM (≈ 8.8 µg/mL)

Compound: Cc1nc2ccccc2c(=O)n1CCNC1=NC(=O)/C(=C/c2ccc([N+](=O)[O-])cc2)S1
- inhibition at 6.25 µg/mL [8]: 99%

Compound: COc1cc(/C=C2\SC(=S)N(CCC(=O)NNC(=O)c3ccncc3)C2=O)cc(OC)c1OC
- IC50 [24]: 350 nM
- MIC [25]: 1.55 µM (≈ 0.779 µg/mL)

Compound: O=C(NN1C(=O)CSC1c1ccc([N+](=O)[O-])cc1)c1coc2ccc3ccccc3c12 (stereo unspecified)
- MIC [21]: 50 µg/mL (≈ 115 µM)

Compound: C/C(=N/N=C1\NC(=O)CS1)c1cc2ccccc2oc1=O
- MIC [26]: 83 µg/mL (≈ 275 µM)

Compound: Cc1ccc(N2C(=O)CSC23C(=O)Nc2ccc(C)cc23)cc1 (stereo unspecified)
- inhibition of growth at 12.5 µg/mL [11]: 90%

Compound: CCc1ccc(CCOc2ccc(/C=C3\SC(=S)N(CC(=O)Nc4nc5ccc(C)cc5s4)C3=O)cc2)nc1
- MIC [14]: 25 µg/mL (≈ 43.5 µM)

Compound: O=C(NCCCN1c2ccccc2Sc2ccccc21)N1C(=O)/C(=C/c2cccc([N+](=O)[O-])c2)SC1c1cccc([N+](=O)[O-])c1 (stereo unspecified)
- inhibition of growth at 50 µg/mL [22]: 83%

Compound: CCOC(=O)c1sc(/N=C2\NC(=O)/C(=C/c3cccnc3)S2)nc1C
- selectivity ratio [27]: 52
- IC50 (WI-38): 81.3 µg/mL (≈ 217 µM)
- MIC [28]: 1.56 µg/mL (≈ 4.17 µM)
